The target in experiment [1] is T1, Serine/threonine-protein kinase Nek2 (Homo sapiens) (UniProt P51955).
T1 sequence (whole entry): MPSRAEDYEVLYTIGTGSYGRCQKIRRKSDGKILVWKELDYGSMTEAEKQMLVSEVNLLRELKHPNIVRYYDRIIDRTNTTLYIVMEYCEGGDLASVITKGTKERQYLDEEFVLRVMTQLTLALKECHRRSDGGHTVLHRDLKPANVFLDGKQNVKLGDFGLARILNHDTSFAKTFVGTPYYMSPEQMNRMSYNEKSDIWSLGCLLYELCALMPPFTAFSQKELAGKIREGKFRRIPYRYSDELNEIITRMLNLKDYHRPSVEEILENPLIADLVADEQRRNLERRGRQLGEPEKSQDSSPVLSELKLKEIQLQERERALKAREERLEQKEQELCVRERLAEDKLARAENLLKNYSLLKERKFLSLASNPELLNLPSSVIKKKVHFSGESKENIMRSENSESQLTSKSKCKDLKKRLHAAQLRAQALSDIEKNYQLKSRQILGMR
Description: Selectivity interaction (SelectScreen profiling (Invitrogen)) EUB0000607a NEK2. The note with it: at 2 µM.

Experiment [2] has as its target T2, Cyclin-G-associated kinase (Homo sapiens) (UniProt O14976).
T2 sequence (whole entry): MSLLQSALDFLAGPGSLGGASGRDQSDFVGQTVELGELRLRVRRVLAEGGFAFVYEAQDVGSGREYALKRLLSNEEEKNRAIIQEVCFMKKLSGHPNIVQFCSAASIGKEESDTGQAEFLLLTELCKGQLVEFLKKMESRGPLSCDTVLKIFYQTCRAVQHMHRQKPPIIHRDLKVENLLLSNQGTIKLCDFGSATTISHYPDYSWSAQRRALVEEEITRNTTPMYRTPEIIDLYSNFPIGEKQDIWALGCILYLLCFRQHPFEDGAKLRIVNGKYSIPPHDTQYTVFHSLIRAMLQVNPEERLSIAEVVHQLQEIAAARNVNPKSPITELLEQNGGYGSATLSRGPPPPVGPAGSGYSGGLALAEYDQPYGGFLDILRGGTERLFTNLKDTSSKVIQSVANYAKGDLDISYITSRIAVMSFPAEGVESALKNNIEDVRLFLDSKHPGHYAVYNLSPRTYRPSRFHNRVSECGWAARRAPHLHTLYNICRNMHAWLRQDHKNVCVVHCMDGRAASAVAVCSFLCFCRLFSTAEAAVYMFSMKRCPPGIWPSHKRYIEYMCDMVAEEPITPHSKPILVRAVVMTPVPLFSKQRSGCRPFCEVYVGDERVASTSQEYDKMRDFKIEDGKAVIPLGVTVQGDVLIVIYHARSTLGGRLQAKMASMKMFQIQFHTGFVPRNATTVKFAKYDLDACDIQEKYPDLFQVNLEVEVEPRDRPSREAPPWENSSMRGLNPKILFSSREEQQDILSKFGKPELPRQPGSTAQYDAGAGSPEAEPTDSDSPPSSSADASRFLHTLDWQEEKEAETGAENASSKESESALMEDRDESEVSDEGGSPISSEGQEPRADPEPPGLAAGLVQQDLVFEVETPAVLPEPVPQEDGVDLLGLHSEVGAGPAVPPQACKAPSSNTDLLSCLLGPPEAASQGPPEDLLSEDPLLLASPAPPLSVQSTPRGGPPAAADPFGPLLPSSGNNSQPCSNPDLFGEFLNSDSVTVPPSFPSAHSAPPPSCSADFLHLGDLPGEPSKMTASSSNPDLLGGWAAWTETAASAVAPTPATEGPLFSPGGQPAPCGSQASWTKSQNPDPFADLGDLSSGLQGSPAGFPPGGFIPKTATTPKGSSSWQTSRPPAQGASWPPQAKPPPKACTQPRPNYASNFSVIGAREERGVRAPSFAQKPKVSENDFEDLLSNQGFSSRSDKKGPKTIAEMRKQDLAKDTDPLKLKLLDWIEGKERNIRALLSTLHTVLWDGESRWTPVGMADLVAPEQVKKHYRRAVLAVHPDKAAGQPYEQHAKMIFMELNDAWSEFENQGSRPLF
Description: Selectivity interaction (ActivX KiNativ screen (kinase selectivity in THP-1 cell lysates)) EUB0000639a GAK. In kind it is subcellular. The conditions noted are these: lysate.

For experiment [3], the target named is T3, Serine/threonine-protein kinase 17B (Homo sapiens) (UniProt O94768).
T3 sequence (whole entry): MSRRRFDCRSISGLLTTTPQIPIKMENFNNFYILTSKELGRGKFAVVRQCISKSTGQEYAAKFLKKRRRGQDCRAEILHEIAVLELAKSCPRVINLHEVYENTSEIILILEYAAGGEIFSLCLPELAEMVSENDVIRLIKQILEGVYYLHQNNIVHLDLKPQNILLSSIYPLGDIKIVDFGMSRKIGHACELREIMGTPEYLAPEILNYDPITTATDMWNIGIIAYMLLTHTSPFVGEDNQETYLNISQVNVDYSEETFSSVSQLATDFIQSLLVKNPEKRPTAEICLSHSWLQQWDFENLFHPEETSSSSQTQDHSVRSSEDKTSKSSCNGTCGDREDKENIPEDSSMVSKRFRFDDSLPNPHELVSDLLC
Briefly: Selectivity interaction (Ambit KINOMEscan and KiNATiv profiling in Jurkat cells) EUB0000090b STK17B. In kind it is cell-based. The conditions noted are these: at 1 µM.

The target of experiment [4] is Ribosomal protein S6 kinase alpha-4 (Homo sapiens) (UniProt O75676). Briefly: Selectivity interaction (Upstate Kinase Profiler service (Millipore)) EUB0000056c RPS6KA4. The note with it: at 1 µM.
Ribosomal protein S6 kinase alpha-4 (Homo sapiens), sequence (O75676 whole entry, looked up): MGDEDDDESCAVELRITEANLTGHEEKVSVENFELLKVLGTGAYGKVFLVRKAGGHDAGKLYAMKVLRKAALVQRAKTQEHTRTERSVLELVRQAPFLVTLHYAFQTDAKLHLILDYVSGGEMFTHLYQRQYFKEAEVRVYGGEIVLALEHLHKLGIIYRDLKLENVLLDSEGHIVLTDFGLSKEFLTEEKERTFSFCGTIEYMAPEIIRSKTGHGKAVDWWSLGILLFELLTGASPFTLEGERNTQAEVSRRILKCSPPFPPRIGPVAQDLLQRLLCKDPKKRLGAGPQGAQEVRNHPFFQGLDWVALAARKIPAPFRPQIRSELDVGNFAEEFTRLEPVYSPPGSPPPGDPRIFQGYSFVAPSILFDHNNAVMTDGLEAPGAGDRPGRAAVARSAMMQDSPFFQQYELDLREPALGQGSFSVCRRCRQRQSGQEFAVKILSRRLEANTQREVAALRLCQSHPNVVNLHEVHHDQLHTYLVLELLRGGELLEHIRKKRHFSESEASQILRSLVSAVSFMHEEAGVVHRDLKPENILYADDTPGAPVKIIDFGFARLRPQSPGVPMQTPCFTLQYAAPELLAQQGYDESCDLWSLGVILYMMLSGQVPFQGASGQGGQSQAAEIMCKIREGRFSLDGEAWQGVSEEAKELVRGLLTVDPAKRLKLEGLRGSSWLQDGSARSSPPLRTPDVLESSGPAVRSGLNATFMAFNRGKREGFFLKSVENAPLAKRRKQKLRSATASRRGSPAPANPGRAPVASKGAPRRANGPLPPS

On to `CNC(=O)Nc1ccc(-c2nc(N3CC4CCC(C3)O4)c3cnn(C4CCC5(CC4)OCCO5)c3n2)cc1`, for which, in experiment [1], the % of inhibition amounted to 10%.

For the molecule `CC[C@@H]1[C@H](F)C(=O)N[C@@H]1COc1nccc2cc(C(N)=O)c(OC)cc12` [ZIMLOVISERTIB], the % of inhibition is 16.2% in experiment [2] (at 0.01 µM); 3.7% in experiment [2] (at 0.04 µM); -10% in experiment [2] (at 0.2 µM); 15.7% in experiment [2] (at 1 µM); 63.1% in experiment [2] (at 5 µM).

`CN(C)C/C=C/C(=O)Nc1ccc(C(=O)N2CCCC(Nc3ncc(Cl)c(-c4c[nH]c5ccccc45)n3)C2)cc1` (stereo not drawn) registered a % of control in experiment [3] of 81%.

Take `Cc1ccc(-c2ccc3c(ccc4sc5c(c43)NC[C@@H](C)NC5=O)n2)cn1`: the % of inhibition in experiment [4] was -19%.

The values above are taken from ChEMBL document CHEMBL5465560, “Selectivity Literature for EUbOPEN Chemogenomic Library” (2024).
